Measured values as given in patent publication EP0247482A2, “Hardened reagent coatings, and processes for the preparation thereof” (priority 1986, dated 1987).

System: casein
Conditions: pH 7
Experimental: A 10 % strength casein solution is prepared in water by adding sodium hydroxide solution. 0.1 g of tartrazine is added to 100 ml of solution as filter dyestuff. Before pouring, various samples of the solution of 3 % by weight of each of the compounds 22, 19, 20, 21, 24, 25, 30, 31, 37, 41, 44, 45, 50, 52, 53, 55 and 56, dissolved in water, are added at a pH of 7.

Cc1ccc(N(C)C(=O)[n+]2ccc(CCS(=O)(=O)[O-])cc2)cc1 [Compound 52]
hardened filter foils, solubility in alkaline water after drying: no longer dissolve in alkaline water

CCN(CC)C(=O)[n+]1ccc(CCS(=O)(=O)[O-])cc1 [Compound 50]
hardened filter foils, solubility in alkaline water after drying: no longer dissolve in alkaline water

O=C(N1CCOCC1)[n+]1cccc(CCS(=O)(=O)[O-])c1 [Compound 56]
hardened filter foils, solubility in alkaline water after drying: no longer dissolve in alkaline water

NC(=O)c1ccc[n+](C(=O)N2CCOCC2)c1 [Compound 19]
hardened filter foils, solubility in alkaline water after drying: no longer dissolve in alkaline water

O=C(N1CCCCC1)[n+]1ccc(CCS(=O)(=O)[O-])cc1 [Compound 53]
hardened filter foils, solubility in alkaline water after drying: no longer dissolve in alkaline water

O=C(N1CCOCC1)[n+]1cccc(S(=O)(=O)[O-])c1 [Compound 45]
hardened filter foils, solubility in alkaline water after drying: no longer dissolve in alkaline water

O=C(N1CCOCC1)[n+]1ccc(CCS(=O)(=O)[O-])cc1 [Compound 55]
hardened filter foils, solubility in alkaline water after drying: no longer dissolve in alkaline water
